The test concerns rice seedlings. Put plainly: Rice yield test. It is filed as in vivo. Particulars: for Average yield: average of nine bunches. The protocol:
A predetermined amount of chemicals was weighed and embedded into soil together with roots of rice seedlings when the seedlings are planted in a paddy field in early May. […] Nine bunches were planted per one test field. After that, usual wet-rice culture was carried out until harvesting in early October. The rice crop was dried and weighed to determine the yield. Good unhusked rice obtained by wind selection was used as the test sample.

`O=P([O-])(O)O.O=P([O-])(O)O.[Ca+2]` [Calcium dihydrogen phosphate]: the Average yield is, setting by setting: (treated amount 1 g per 1 m^2, good unhusked rice) 196 g; (treated amount 10 g per 1 m^2, good unhusked rice) 230 g. Further, the “Average yield (%)” value is “(90) %” (treated amount 1 g per 1 m^2, untreated = 100) and “(105) %” (treated amount 10 g per 1 m^2, untreated = 100).

Source of the values: US20080271368A1, “METHOD OF PROMOTING PLANT GROWTH AND IMPROVING PLANT QUALITY AND GROWTH-PROMOTING AGENT AND QUALITY-IMPROVING AGENT TO BE USED IN THE METHOD” (priority 2006, published 2008).
